This passage reports EC50 results from patent US20220251084A1, “PROGRANULIN MODULATORS AND METHODS OF USING THE SAME” (ARKUDA THERAPEUTICS, priority 2019, published 2022).

Where only a bound is given, the exact number is not on record here.

One assay deals with progranulin (PGRN) secretion, BV-2 cells. The experiment in a line: PGRN assay: progranulin induction cellular assay (ELISA of secreted mouse PGRN). It is filed as cell-based.
Conditions: not given
The gist of the method:
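Progranulin induction measured in BV-2 cells plated at about 80% confluence the day before, given 1 h to attach, then incubated 16 h. Secreted mouse PGRN quantified by ELISA.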
For orientation: In an ELISA, binding on a coated surface is turned into a signal by an enzyme label.
What is called EC50 is the concentration needed to bring the measured effect to its halfway point. In turn, `O=C(O[C@@H]1CN2CCC1CC2)N1CCc2cccnc2[C@@H]1c1ccc(F)cc1` [Compound 2054, (S)-quinuclidin-3-yl 8-(4-fluorophenyl)-5,6-dihydro-1,7-naphthyridine-7(8H)-carboxylate] registered an EC50 of 4740 nM. In turn, `CN1CCC([C@H]2c3ccccc3CCN2C(=O)O[C@@H]2CN3CCC2CC3)CC1=O` (stereo partly drawn) [Compound 2024, (S)-quinuclidin-3-yl 1-(1-methyl-2-oxopiperidin-4-yl)-3,4-dihydroisoquinoline-2(1H)-carboxylate] displayed an EC50 of more than 10000 nM.

Staying with this assay, now noted: Mus musculus, BV-2, PGRN assay, Table C; secreted mouse PGRN in cell culture medium, ELISA.
The compound `CN1CC2(CC[C@H]2OC(=O)N2CCc3ccccc3[C@@H]2c2ccc(F)cc2)C1` [Compound 2022] registered an EC50 of 960 nM. On the same count and under the same terms, the figure for `CN1C[C@@H]2[C@@H](COC(=O)N3CCc4ccccc4[C@@H]3c3ccc(F)cc3)[C@@H]2C1` [Compound 2023] is 1180 nM; for `CN1[C@H]2COC[C@H]1CC(OC(=O)N1CCc3ccccc3[C@@H]1c1ccc(F)cc1)C2` (single isomer, unassigned) [Compound 2099] it is 1880 nM; for `C#CCOc1ccc2c(c1)[C@H](c1ccc(F)cc1)N(C(=O)NCC13CCN(CC1)CC3)CC2` [Compound 2192, (S)-1-(4-fluorophenyl)-7-(prop-2-yn-1-yloxy)-N-(quinuclidin-4-ylmethyl)-3,4-dihydroisoquinoline-2(1H)-carboxamide] it is more than 10000 nM. With `CNC(=O)c1ccc2c(c1)[C@H](c1ccc(F)cc1)N(C(=O)OCC13CCN(CC1)CC3)CC2` [Compound 2059], the EC50 was more than 10000 nM.

`CN1CCC(COC(=O)N2CCc3ccccc3[C@H]2c2cccc(F)c2F)CC1` [Compound 2135]: the EC50 stood at 2660 nM. This lies in the single-digit micromolar range. Compound `C#CCOc1ccc2c(c1)CCN(C(=O)NCC13CCN(CC1)CC3)[C@@H]2c1ccc(F)cc1` [Compound 2085] registered a half-maximal effective concentration (EC50) of 4990 nM. Compared with the last compound, the EC50 is about 1.9-fold higher. `CN1CCC(COC(=O)N2CCc3ccccc3[C@H]2c2ccc(F)c(F)c2)CC1` (single isomer, unassigned) [Compound 2139, (1-methylpiperidin-4-yl)methyl-1-(3,4-difluorophenyl)-3,4-dihydroisoquinoline-2(1H)-carboxylate] yielded an EC50 of more than 10000 nM. `CO[C@@H](CC12CCN(CC1)CC2)C(=O)N1CCc2ccccc2[C@@H]1c1ccc(F)cc1` [Compound 2027] yielded a concentration giving a half-maximal response (EC50) of more than 10000 nM.

Regarding `CN1CCS(=O)(=O)[C@@H](CC(=O)N2CCc3ccccc3[C@@H]2c2ccc(F)cc2)C1` (single isomer, unassigned) [Compound 2043], the EC50 was more than 10000 nM. Compound `O=C(OCC12CCN(CC1)CC2)N1CCc2ccccc2[C@@H]1c1cc(F)cc(F)c1` (single isomer, unassigned) [Compound 2140, quinuclidin-4-ylmethyl-1-(3,5-difluorophenyl)-3,4-dihydroisoquinoline-2(1H)-carboxylate] showed an EC50 of 9910 nM. The compound `O=C(OCC12CCN(CC1)CC2)N1CCc2ccccc2[C@@H]1c1ccc(F)cc1F` [Compound 2096] returned an EC50 of 387 nM. As to `O=C(N[C@H]1CCN2CCC[C@H]12)N1CCc2ccccc2[C@@H]1c1ccc(F)cc1` [Compound 2050], the EC50 came out at 3900 nM. Against the preceding compound, the EC50 is about 10-fold higher. In the case of `CN1CC2OCC(OC(=O)N3CCc4ccccc4[C@@H]3c3ccc(F)cc3)C2C1` (single isomer, unassigned) [Compound 2076], the EC50 was more than 10000 nM.

Take `O=C(OCC12CCN(CC1)CC2)N1CCc2ccccc2[C@H]1c1ccc(OCc2cncnc2)cc1` [Compound 2150]: the midpoint of the response, the EC50, lay at 9460 nM.

`O=C(OCC12CCN(CC1)CC2)N1CCc2ccccc2[C@H]1c1ccc(OCc2ncccn2)cc1` [Compound 2156]: the EC50 was 713 nM. Still for that read-out and setting: the result for `CN1CCC(COC(=O)N2CCc3ccccc3[C@H]2c2cc(F)cc(F)c2)CC1` [Compound 2109] reads more than 10000 nM.

Still in this assay, the particulars now being: Mus musculus, BV-2, PGRN assay, Table D; secreted mouse PGRN in cell culture medium, ELISA.
Consider `CNC[C@@H]1CN(C(=O)N2CCc3ccccc3[C@@H]2c2ccc(F)cc2)CCO1` [Compound 2306], for which the concentration giving a half-maximal response (EC50) was 129 nM. With `CN1CC[C@@H](NC(=O)N2CCc3ccccc3[C@@H]2c2ccc(F)cc2)C1` [Compound 2245], a half-maximal effect (EC50) was put at 460 nM. `N[C@@H]1CCN(C(=O)N2CCc3ccccc3[C@@H]2c2ccc(F)cc2)C1` [Compound 2287] showed an EC50 of 351 nM.

In turn, `CN1CCC(C(O)C(=O)N2CCc3ccccc3[C@@H]2c2ccc(F)cc2)C1` (stereo partly drawn) [Compound 2267, 1-((S)-1-(4-fluorophenyl)-3,4-dihydroisoquinolin-2(1H)-yl)-2-hydroxy-2-(1-methylpyrrolidin-3-yl)ethanone] displayed an EC50 of 130 nM. The compound `CN(C(=O)N1CCc2ccccc2[C@@H]1c1ccc(F)cc1)[C@H]1CCCNC1` (single isomer, unassigned) [Compound 2211] showed a concentration for a half-maximal effect (EC50) of 3030 nM.

Compound `O=C(NC[C@@H]1CNCCO1)N1CCc2ccccc2[C@@H]1c1ccc(F)cc1` [Compound 2209] had an EC50 of 730 nM. Take `O=C(NC[C@@H]1CCCN1)N1CCc2ccccc2[C@H]1c1ccc(F)cc1` [Compound 2218]: the EC50 turned out to be 3950 nM. Against the preceding compound, the EC50 is about 5.4-fold higher. For the compound `CN(C)C[C@@H]1CCN(C(=O)N2CCc3ccccc3[C@@H]2c2ccc(F)cc2)C1` [Compound 2313, ((S)-3-((dimethylamino)methyl)pyrrolidin-1-yl)((S)-1-(4-fluorophenyl)-3,4-dihydroisoquinolin-2(1H)-yl)methanone], a half-maximal effect (EC50) was put at 2940 nM.

Regarding `O=C(NCC1CNC1)N1CCc2ccccc2[C@@H]1c1ccc(F)cc1` [Compound 2257, (S)—N-(azetidin-3-ylmethyl)-1-(4-fluorophenyl)-3,4-dihydroisoquinoline-2(1H)-carboxamide acetate], the EC50 worked out at 550 nM. Consider `CN(C(=O)N1CCc2ccccc2[C@@H]1c1ccc(F)cc1)[C@@H]1CCCNC1` (single isomer, unassigned) [Compound 2213], for which the EC50 was determined as 3530 nM. `O=C(N[C@@H]1CNC[C@@H]1F)N1CCc2ccccc2[C@@H]1c1ccc(F)cc1` [Compound 2353] yielded an EC50 of 33.9 nM. This EC50 lies about 100-fold lower than the previous one. On the same count and under the same terms, the result for `O=C(O[C@H]1C[N@]2CC[C@H]1C2)N1CCc2ccccc2[C@@H]1c1ccc(F)cc1` [Compound 2204] reads 650 nM; that for `CC1(C)CNC[C@H]1NC(=O)N1CCc2ccccc2[C@@H]1c1ccc(F)cc1` [Compound 2273], 319 nM; that for `CN1CC[C@@H](O)[C@H](O)[C@H]1COC(=O)N1CCc2ccccc2[C@@H]1c1ccc(F)cc1` [Compound 2289, ((2R,3R,4R)-3,4-dihydroxy-1-methylpiperidin-2-yl)methyl (S)-1-(4-fluorophenyl)-3,4-dihydroisoquinoline-2(1H)-carboxylate], more than 10000 nM.

As to `O=C(OCC1CNC1)N1CCc2ccccc2[C@@H]1c1ccc(F)cc1` [Compound 2246, Azetidin-3-ylmethyl (S)-1-(4-fluorophenyl)-3,4-dihydroisoquinoline-2(1H)-carboxylate 2,2,2-trifluoroacetate], the EC50 was determined as 770 nM.

The compound `O=C(OC[C@@]1(F)CCNC1)N1CCc2ccccc2[C@@H]1c1ccc(F)cc1` (single isomer, unassigned) [Compound 2255] showed an EC50 of 240 nM. The compound `O=C(O[C@@H]1CNC[C@@H]1F)N1CCc2ccccc2[C@@H]1c1ccc(F)cc1` [Compound 2363] returned an EC50 of 104 nM. Turning to `CNC[C@H]1CN(C(=O)N2CCc3ccccc3[C@@H]2c2ccc(F)cc2)CCO1` [Compound 2307], the EC50 amounted to 483 nM.

Compound `O=C(N1CC[C@]2(CNCCO2)C1)N1CCc2ccccc2[C@@H]1c1ccc(F)cc1` (single isomer, unassigned) [Compound 2326] came in with an EC50 of 189 nM.
